# System: IL-12
# Assay: Human in vitro assay: inhibition of IL-12 production in IFNγ/LPS- or IFNγ/SAC-stimulated human PBMC or THP-1 cells (ELISA)
# Format: cell-based
# Conditions: read-out: IC50 Range (representative in vitro IC50 data)
# Summary of the method: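 PBMC (5×10^5 cells/well) primed with IFNγ 30 U/mL for 22 h then LPS 1 μg/mL, or IFNγ 100 U/mL then SAC 0.01%; THP-1 primed with IFNγ 100 U/mL for 22 h then SAC 0.025%, with compound in 0.25% DMSO. Supernatant IL-12 p70/p40 measured by sandwich ELISA after 18 h; IC50 derived; viability by MTS.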
row,SMILES,IC50 [nM]
1,"Cc1[nH]c2ccc(NC(=O)c3cc(NCC(=O)N4CCCC4)nc(N4CCOCC4)n3)cc2c1C [Compound 108, 2-Morpholin-4-yl-6-(2-oxo-2-pyrrolidin-1-yl-ethylamino)-pyrimidine-4-carboxylic acid (2,3-dimethyl-1H-indol-5-yl)-amide]",< 1000
2,"Cc1[nH]c2ccc(NC(=O)c3cc(NCC(=O)N4CCCCC4)nc(N4CCOCC4)n3)cc2c1C [Compound 109, 2-Morpholin-4-yl-6-(2-oxo-2-piperidin-1-yl-ethylamino)-pyrimidine-4-carboxylic acid (2,3-dimethyl-1H-indol-5-yl)-amide]",< 1000
3,"Cc1[nH]c2ccc(NC(=O)c3cc(NCC(=O)NC4CCCC4)nc(N4CCOCC4)n3)cc2c1C [Compound 110, 6-(Cyclopentylcarbamoylmethyl-amino)-2-morpholin-4-yl-pyrimidine-4-carboxylic acid (2,3-dimethyl-1H-indol-5-yl)-amide]",< 1000
4,"Cc1cccc(NC(=O)CNc2cc(C(=O)Nc3ccc4[nH]c(C)c(C)c4c3)nc(N3CCOCC3)n2)c1 [Compound 111, 2-Morpholin-4-yl-6-[(m-tolylcarbamoyl-methyl)-amino]-pyrimidine-4-carboxylic acid (2,3-dimethyl-1H-indol-5-yl)-amide]",< 1000
5,"Cc1[nH]c2ccc(NC(=O)c3cc(NCC(=O)N(C)C)nc(N4CCOCC4)n3)cc2c1C [Compound 112, 6-(Dimethylcarbamoylmethyl-amino)-2-morpholin-4-yl-pyrimidine-4-carboxylic acid (2,3-dimethyl-1H-indol-5-yl)-amide]",< 1000
6,"Cc1[nH]c2ccc(NC(=O)c3cc(N(C)CC(=O)N4CCCCC4)nc(N4CCOCC4)n3)cc2c1C [Compound 113, 6-[Methyl-(2-oxo-2-piperidin-1-yl-ethyl)-amino]-2-morpholin-4-yl-pyrimidine-4-carboxylic acid (2,3-dimethyl-1H-indol-5-yl)-amide]",< 1000
7,"Cc1[nH]c2ccc(NC(=O)c3cc(N(C)CC(=O)N4CCOCC4)nc(N4CCOCC4)n3)cc2c1C [Compound 114, 6-[Methyl-(2-morpholin-4-yl-2-oxo-ethyl)-amino]-2-morpholin-4-yl-pyrimidine-4-carboxylic acid (2,3-dimethyl-1H-indol-5-yl)-amide]",< 1000
8,"O=C(Nc1cccc(-n2cccn2)c1)c1cc(OCC(=O)N2CCCCC2)nc(N2CCOCC2)n1 [Compound 115, 2-Morpholin-4-yl-6-(2-oxo-2-piperidin-1-yl-ethoxy)-pyrimidine-4-carboxylic acid (3-pyrazol-1-yl-phenyl)-amide]",< 1000
9,"CN(C)c1cccc(NC(=O)c2cc(N(C)CC(=O)N3CCCCC3)nc(N3CCOCC3)n2)c1 [Compound 116, 6-[Methyl-(2-oxo-2-piperidin-1-yl-ethyl)-amino]-2-morpholin-4-yl-pyrimidine-4-carboxylic acid (3-dimethylamino-phenyl)-amide]",< 1000
10,"Cc1[nH]c2ccc(NC(=O)c3cc(N(C)CC(N)=O)nc(N4CCOCC4)n3)cc2c1C [Compound 117, 6-(Carbamoylmethyl-methyl-amino)-2-morpholin-4-yl-pyrimidine-4-carboxylic acid (2,3-dimethyl-1H-indol-5-yl)-amide]",< 1000

# Now from value to compound:
row,IC50 [nM],SMILES
1,< 1000,"Cc1[nH]c2ccc(NC(=O)c3cc(NCCN(C)C)nc(N4CCOCC4)n3)cc2c1C [Compound 95, 6-(2-Dimethylamino-ethylamino)-2-morpholin-4-yl-pyrimidine-4-carboxylic acid (2,3-dimethyl-1H-indol-5-yl)-amide]"
2,< 1000,"Cc1[nH]c2ccc(NC(=O)c3cc(NCC(=O)O)nc(N4CCOCC4)n3)cc2c1C [Compound 96, [6-(2,3-Dimethyl-1H-indol-5-ylcarbamoyl)-2-morpholin-4-yl-pyrimidin-4-ylamino]-acetic acid]"
3,< 1000,"COC(=O)CNc1cc(C(=O)Nc2ccc3[nH]c(C)c(C)c3c2)nc(N2CCOCC2)n1 [Compound 97, [6-(2,3-Dimethyl-1H-indol-5-ylcarbamoyl)-2-morpholin-4-yl-pyrimidin-4-ylamino]-acetic acid methyl ester]"
4,< 1000,"COCCNC(=O)CNc1cc(C(=O)Nc2ccc3[nH]c(C)c(C)c3c2)nc(N2CCOCC2)n1 [Compound 98, 6-{[(2-Methoxy-ethylcarbamoyl)-methyl]-amino}-2-morpholin-4-yl-pyrimidine-4-carboxylic acid (2,3-dimethyl-1H-indol-5-yl)-amide]"
5,< 1000,"Cc1[nH]c2ccc(NC(=O)c3cc(NCC(=O)N4CCC(C(N)=O)CC4)nc(N4CCOCC4)n3)cc2c1C [Compound 99, 6-[2-(4-Carbamoyl-piperidin-1-yl)-2-oxo-ethylamino]-2-morpholin-4-yl-pyrimidine-4-carboxylic acid (2,3-dimethyl-1H-indol-5-yl)-amide]"
6,< 1000,"Cc1[nH]c2ccc(NC(=O)c3cc(NCC(=O)N4CCC(O)CC4)nc(N4CCOCC4)n3)cc2c1C [Compound 100, 6-[2-(4-Hydroxy-piperidin-1-yl)-2-oxo-ethylamino]-2-morpholin-4-yl-pyrimidine-4-carboxylic acid (2,3-dimethyl-1H-indol-5-yl)-amide]"
7,< 1000,"Cc1[nH]c2ccc(NC(=O)c3cc(NCC(=O)N(C)CCO)nc(N4CCOCC4)n3)cc2c1C [Compound 101, 6-({[(2-Hydroxy-ethyl)-methyl-carbamoyl]-methyl}-amino)-2-morpholin-4-yl-pyrimidine-4-carboxylic acid (2,3-dimethyl-1H-indol-5-yl)-amide]"
8,< 1000,"CC(=O)N1CCN(C(=O)CNc2cc(C(=O)Nc3ccc4[nH]c(C)c(C)c4c3)nc(N3CCOCC3)n2)CC1 [Compound 102, 6-[2-(4-Acetyl-piperazin-1-yl)-2-oxo-ethylamino]-2-morpholin-4-yl-pyrimidine-4-carboxylic acid (2,3-dimethyl-1H-indol-5-yl)-amide]"
9,< 1000,"Cc1[nH]c2ccc(NC(=O)c3cc(NCC(=O)N4CCc5ccccc5C4)nc(N4CCOCC4)n3)cc2c1C [Compound 103, 6-[2-(3,4-Dihydro-1H-isoquinolin-2-yl)-2-oxo-ethylamino]-2-morpholin-4-yl-pyrimidine-4-carboxylic acid (2,3-dimethyl-1H-indol-5-yl)-amide]"
10,< 1000,"Cc1[nH]c2ccc(NC(=O)c3cc(NCC(N)=O)nc(N4CCOCC4)n3)cc2c1C [Compound 104, 6-(Carbamoylmethyl-amino)-2-morpholin-4-yl-pyrimidine-4-carboxylic acid (2,3-dimethyl-1H-indol-5-yl)-amide]"
11,< 1000,"CCNC(=O)CNc1cc(C(=O)Nc2ccc3[nH]c(C)c(C)c3c2)nc(N2CCOCC2)n1 [Compound 105, 6-(Ethylcarbamoylmethyl-amino)-2-morpholin-4-yl-pyrimidine-4-carboxylic acid (2,3-dimethyl-1H-indol-5-yl)-amide]"
12,< 1000,"Cc1[nH]c2ccc(NC(=O)c3cc(NCC(=O)N4CCN(C)CC4)nc(N4CCOCC4)n3)cc2c1C [Compound 106, 6-[2-(4-Methyl-piperazin-1-yl)-2-oxo-ethylamino]-2-morpholin-4-yl-pyrimidine-4-carboxylic acid (2,3-dimethyl-1H-indol-5-yl)-amide]"
13,< 1000,"CCCCN(C)C(=O)CNc1cc(C(=O)Nc2ccc3[nH]c(C)c(C)c3c2)nc(N2CCOCC2)n1 [Compound 107, 6-{[(Butyl-methyl-carbamoyl)-methyl]-amino}-2-morpholin-4-yl-pyrimidine-4-carboxylic acid (2,3-dimethyl-1H-indol-5-yl)-amide]"
